The conditions of data set [1]: human, in vivo; cited from earlier work.
Data set [2] relates to experimental autoimmune encephalomyelitis (EAE). As to the kind of experiment: MOG-induced EAE in C57BL/6 mice. It counts as in vivo, C57Bl/6 female mice.
Protocol: EAE was induced in C57bl/6 mice by immunization with MOG/CFA and injection of pertussis toxin as described in the Experimental Section. The body weight, neurological scores, and disease incidence were monitored daily for 35 days. Immunized mice (n = 10–14 in each group) were treated (i.p. injection) at time points indicated by arrows. Histology was performed on day 35 on all groups. Data shown are the mean ± SEM, evaluated by the nonparametric Kruskal–Wallis test followed by a Dunn’s postanalysis. All p-values <0.05 were considered statistically significant. (A) Neurological clinical score. Visabron c (4–4) (green) at a cumulative dose of 25 mg/kg (5 mg/kg every other day, for 8 days) and natalizumab (orange) at a cumulative dose of 120 mg/kg (24 mg/kg every other day, for 8 days). […] (E) Dose–response of treatment with visabron c (4–4). Inset: Mean neurological score of the different treatment groups at disease onset (days 15–17). […] (F) Inflammatory infiltrates (blue) in the spinal cord were evaluated by cell counting in H&E stained slices.
C57Bl/6 female mice, 8 weeks old, obtained from the Harlan animal breeding center were used in the study and were maintained in the SPF unit of the Faculty of Medicine. EAE was induced by s.c. injection of 0.2 mL/mouse emulsion containing 200 μg of MOG35–55 peptide in saline and an equal volume of 5 mg/mL Complete Freund’s Adjuvant (CFA) containing 1 mg/mL heat-killed M. tuberculosis (H37Ra; Difco Laboratories, Detroit, MI) . The emulsification was made from equal parts of oil and liquid portions (1:1) in two syringes connected to each other with Leur lock, transferred to an insulin syringe, and 0.2 mL was injected to the right flank of each mouse. On the day of immunization, pertussis toxin (200 ng/mL) was injected i.p. at a volume dose of 0.2 mL/mouse. The injection of the pertussis toxin (i.p) was repeated after 48 h to boost the immune recognition reaction. From day four, natalizumab and Visabron c (4–4) were injected i.p. each other day, five times, and the weight, the neurological score and the disease incidence of the mice were monitored until 35 days after immunization. EAE scoring system: mice were observed daily for the appearance of neurological symptoms, which were scored as follows: 0, asymptomatic; 1, partial loss of tail tonicity; 1.5, limp tail; 2, hind limb weakness (right reflex); 3, ataxia; 4, early paralysis; 5, full paralysis; and 6, moribund or dead. The disease incidence was calculated as a percentage of the ratio of the number of new diseased mice per number of living mice at each time-point. In experiments to estimate cell infiltration in the spinal cord at 35 days postimmunization, the mice were euthanized by cervical dislocation and lumbar spinal cords were collected.
Data set [3] can be described thus: Immunogenicity, antibody titer by ELISA in BALB/c mice. It counts as in vivo, BALB/c male mice. As to conditions: 40 days, Figure 8. How it is done:
Figure 8 Antibody titer test in BALB/c mice, 40 days post intraperitoneal administration with natalizumab (18 mg/kg), visabron c (2–2) (150 mg/kg) alone, and administered together with Complete Freund’s Adjuvant (visabron c (2–2) + CFA), as compared to preimmune control serum. The results represent the mean ± SEM (n = 6) of optical absorbance (OD 490 nm) in ELISA. *p ≤ 0.01 compared to control.
BALB/c male mice, aged 60 days (22 gr) were divided into three groups each containing six mice. The mice were immunized intraperitoneal with 0.5 mL of Visabron c (2–2) (150 mg/kg), 0.25 mL Visabron c (2–2) (150 mg/kg) + 0.25 mL of Freund‘s complete adjuvant, and 0.25 mL natalizumab (18 mg/kg). After 14 days of the first inoculation, the mice received a booster with 0.5 mL of the preparations mentioned above. To verify the presence of antibodies against visabron c (2–2) or natalizumab, the serum collected from mice tail blood was tested 40 days after the first inoculation by indirect ELISA using visabron c (2–2) or natalizumab antigens immobilized to the plate (25 μg per well, diluted in 20 mM carbonate buffer, pH 9.6 overnight incubated at 4 °C). […] The reaction was stopped with 12.5% H2SO4, and absorbance was measured at 490 nm. The results were considered significant when the absorbance was at least two times higher than that obtained with the preimmune serum.
For orientation: In an ELISA, binding on a coated surface is turned into a signal by an enzyme label.

The next data set addresses T1, LynA (Homo sapiens, UniProt P07948).
T1 construct: purchased Carna 08-171
As to the kind of experiment: PhosphoSens CSox-based kinase assay, LynA. It counts as biochemical. As to conditions: 1 mM, but not 0.1 mM; Figure 7. How it is done: Kinase activity was measured using the PhosphoSenstechnology (AssayQuant Technologies Inc., Marlborough, MA) as detailed in the Supporting Information. […]
Visabron c (4-4) safety by in vitro evaluation using PhosphoSens - CSox based kinase assays:
A powerful method was used to measure the activity of recombinant protein kinases using a homogeneous and continuous (kinetic) format, where the level of chelation-enhanced fluorescence (CHEF) that is directly proportional to the amount of phosphorylated, real-time sensors consisting of sulfonamido-oxine (Sox) chromophore, linked to a peptide or protein substrates of selective kinases 6. […]
Kinase activity measurements: Kinase activity was measured continuously using the PhosphoSens® technology (AssayQuant Technologies Inc., Marlborough, MA) according to the manufacturers’ recommendations. This one-step homogeneous assay format uses chelation -enhanced fluorescence via optimized substrate sensors containing the unnatural fluorogenic amino -acid Sox. […]
Final reaction conditions : Protein kinase activity was determined in 54 mM HEPES, pH 7.5, 1 mM ATP, 1.2 mM DTT, 0.012% Brij-35, 0.52 mM EGTA, 10 mM MgCl2, 1% glycerol, 0.2mg/ml BSA, and 15 μM Sox -based sensor. […]

Numbered stars: 1 amine (or outer) side, 2 acyl side, 3 side chain; on linkers, the order of the positions; unused ones are H or OH. Bridge positions count the residues as written; N and C are the ends. Square brackets hold non-standard residues; d marks the D form. Peptide text beside a SMILES is read from it. N(2-Aminoethyl)Gly = O=C(CN(CCN[*:3])[*:1])[*:2]; CO = O=C([*:1])[*:2]; Nlys = NCCCCNCC(=O)O

T1 sequence (P07948 whole entry): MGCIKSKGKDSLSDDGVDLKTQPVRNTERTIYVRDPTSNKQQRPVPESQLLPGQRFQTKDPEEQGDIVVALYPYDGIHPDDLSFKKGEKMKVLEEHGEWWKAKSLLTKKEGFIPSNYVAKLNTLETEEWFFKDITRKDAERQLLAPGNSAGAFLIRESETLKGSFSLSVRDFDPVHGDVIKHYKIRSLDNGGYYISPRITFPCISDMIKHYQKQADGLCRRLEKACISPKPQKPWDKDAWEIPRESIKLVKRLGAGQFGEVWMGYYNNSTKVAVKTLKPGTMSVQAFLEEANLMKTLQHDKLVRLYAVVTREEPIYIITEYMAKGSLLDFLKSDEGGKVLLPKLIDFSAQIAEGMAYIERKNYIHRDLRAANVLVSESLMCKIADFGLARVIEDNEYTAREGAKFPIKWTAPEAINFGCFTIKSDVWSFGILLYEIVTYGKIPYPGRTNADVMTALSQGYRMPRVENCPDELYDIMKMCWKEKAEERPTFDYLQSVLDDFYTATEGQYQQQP

Turning to “natalizumab: clinical-grade monoclonal antibody anti-α4β1 produced by Biogen Co. [reference compound]”, in data set [1], the “Multiple sclerosis patients with anti-natalizumab-neutralizing antibodies” value is listed as 6–9% and the “Patients with neutralizing antibodies toward natalizumab that cause loss of drug efficacy” value is on record as “about 6%”. Moreover, the “EAE-associated body weight decrease” value in data set [2] (13–16 to 35 days postimmunization, visabron c (4–4) cumulative 25 mg/kg, natalizumab 120 mg/kg i.p., Figure 3B) is “significantly decreased”. In data set [2] (Figure 3C), the “Disease incidence vs EAE disease group” value is listed as “lower disease incidence”. Also, the “Cumulative neurological scores vs EAE/PBS group” value in data set [2] (at 35 days postimmunization, Figure 3D) is “significantly decreased”. In data set [2] (day 35, Figure 3F), the “Inflammatory cell infiltration in spinal cord (H&E cell counting)” value was “significantly reduced”. The “Increase in neurological score vs EAE group” value in data set [2] (onset (13–16 days) to 35 days postimmunization, i.p., visabron c (4–4) cumulative 25 mg/kg, natalizumab cumulative 120 mg/kg, Figure 3A) is recorded as “significantly lower”.
On to `CSCC[C@@H]1NC(=O)[C@H]([C@@H](C)O)NC(=O)CN(C(=O)[C@@H](N)CCCCN)CCNC(=O)NCCN(CC(=O)N[C@@H](CC(C)C)C(N)=O)C(=O)[C@H](CC(=O)O)NC(=O)[C@H](CC(C)C)NC1=O` [visabron c (2–2)] (H-K[N(2-Aminoethyl)Gly]TMLD[N(2-Aminoethyl)Gly]L-NH2; linker 2-7 via CO), for which the “Antibody production (ELISA vs preimmune serum)” value in data set [3] (150 mg/kg intraperitoneal alone) and in data set [3] (150 mg/kg intraperitoneal together with Freund's complete adjuvant) was “did not induce antibody production” each time.
One may read the inhibition as how much of the control response was suppressed. As for `CSCC[C@@H]1NC(=O)[C@H]([C@@H](C)O)NC(=O)CN(C(=O)[C@@H](N)CCCCN)CCCCNC(=O)NCCCCN(CC(=O)N[C@@H](CC(C)C)C(N)=O)C(=O)[C@H](CC(=O)O)NC(=O)[C@H](CC(C)C)NC1=O` [visabron c (4–4)] (H-K[Nlys]TMLD[Nlys]L-NH2; linker 2-7 via CO), on LynA, the inhibition at 1000 µM lay in the range of 25 to 40%.

These data come from article PMC8717366, “Synthesis and Pharmacological Characterization of Visabron, a Backbone Cyclic Peptide Dual Antagonist of α4β1 (VLA-4)/α9β1 Integrin for Therapy of Multiple Sclerosis” (JACS Au, 2021).
